Test results reported in PubChem BioAssay AID493003 (Sanford-Burnham Center for Chemical Genomics, 2010).
Activity calls are given as the source filed them. How the calls were made is not given here.

Test system: S. cerevisiae tim10-1 mutant growth, luminescence
Experiment: growth inhibitors of tim10-1 mutant yeast, dose response, luminescence, S. cerevisiae, uHTS hits (AID 493003);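 further: yeast growth measured after about 22 hours at 25 °C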

Compared with CNc1nc(-c2ccccn2)nnc1-c1ccccc1, Cc1nc(Nc2ccccc2)sc1-c1ccccc1 is 2.5-fold lower in IC50: 29.8 µM for the first, 11.9 µM for the second. The second is the more potent here.

First: c1ccc(Nc2cccc(Nc3ccccc3)c2)cc1
Second: S=C(NCCc1ccccc1)Nc1ccc(Nc2ccccc2)cc1
The IC50 of the first is 2.2-fold lower: 11.2 µM for the first, 24.7 µM for the second. The first is the more potent here.

CCN1C(=O)C2(C(C#N)=C(N)Oc3c2c(C)nn3-c2ccccc2)c2ccccc21 (centres undefined) and CCc1nn(-c2ccccc2)c(=S)c2ccccc12 are within 1.5-fold of each other in IC50: 22.2 µM for the first, 22.8 µM for the second.

Compared with Cc1cc2c(cc1C)CSC(c1ccccc1O)SC2, CC(C)(C)c1ccc(-c2cc(-c3ccccc3O)[nH]n2)cc1 is 1.9-fold higher in IC50: 20.7 µM for the first, 38.9 µM for the second.

First: Cc1nn(C)c(C(=O)NC(=S)Nc2ccc([N+](=O)[O-])cc2)c1Cl
Second: CC(=O)c1ccc(NC(=S)NC(C)c2ccc(Cl)cc2Cl)cc1 (centres undefined)
The IC50 of the first is 5.6-fold higher: 74.5 µM for the first, 13.2 µM for the second. The second is the more potent here.

Compared with CC(C)(C)c1ccc(C(=O)c2cn[nH]c2-c2ccccc2O)cc1, CC/C(=N\Nc1ccccc1[N+](=O)[O-])c1ccc(O)cc1 is 2.6-fold lower in IC50: 52 µM for the first, 20 µM for the second.

Cc1sc(NC(=O)c2ccco2)c(C(c2cccnc2)N2CCCC2)c1C (centres undefined) and O=C(c1ccco1)N1CCN(c2ncnc3scc(-c4ccccc4)c23)CC1 are within 1.5-fold of each other in IC50: 17.2 µM for the first, 17.7 µM for the second.

First: Cc1cc(C)cc(OCC(=O)N2N=C(C(F)(F)F)CC2(O)C(C)(C)C)c1 (centres undefined)
Second: C/C(=N\N=C1\NC(=O)C(CC(=O)Nc2ccc(C)c(Cl)c2)S1)C(C)(C)C (centres undefined)
The IC50 of the first is 1.6-fold higher: 77.8 µM for the first, 47.3 µM for the second.

Compared with COc1ccc(Cl)cc1NC(=O)CN(C)C(=O)C12CC3CC(CC(Cl)(C3)C1)C2, Cc1cc(C)n(-c2nnc(NC34CC5CC(CC(C5)C3)C4)nn2)n1 is 4.8-fold higher in IC50: 9.65 µM for the first, 46.4 µM for the second. The first is the more potent here.

First: C=CC(C)(C)c1c(O)c(CC=C(C)C)c(O)c2c(=O)c3ccc(O)c(O)c3oc12
Second: Cc1oc2c(Cl)c(Cl)c(O)c(CN(C)C)c2c1C(=O)c1ccc(Cl)cc1
The IC50 of the first is 1.7-fold higher: 30.7 µM for the first, 18.6 µM for the second. The second is the more potent here.

CN(C1CCCCC1)S(=O)(=O)c1ccc(NC(=O)c2ccc(Br)o2)cc1 and Cc1ccc(C(=O)N2CCN(c3ccc(NC(=O)c4ccc(Br)o4)cc3)CC2)cc1 are within 1.5-fold of each other in IC50: 30.6 µM for the first, 32.2 µM for the second.

N#C/C(=C/c1ccc(N2CCCCCC2)o1)c1cccc(F)c1 and O=C1CC(N2CCCCCC2)C(=O)N1c1ccc(F)cc1 (centres undefined) are within 1.5-fold of each other in IC50: 14.9 µM for the first, 13.9 µM for the second.

C/C(CC(=O)Nc1ccc(N(C)C)cc1)=N\NC(=O)c1ccccn1 and Cc1ccccc1OCC(=O)Nc1ccc(Cc2ccncc2)cc1 are within 1.5-fold of each other in IC50: 54.5 µM for the first, 41.7 µM for the second.

Compared with COc1ccc2[nH]c3c(=O)n4c(nc3c2c1)SCC4, C=Cc1ncc(OC)c2c1[nH]c1ccccc12 is 3.2-fold lower in IC50: 79.9 µM for the first, 25 µM for the second. The second is the more potent here.

Going from CC(C)NC(=S)N/N=C1\CCCCC1C1CCCCC1 (centres undefined) to CC(C)NC(=S)N/N=C1\CCCCc2ccccc21, the IC50 falls from 37.5 µM to 13.9 µM (2.7-fold).

Going from Cc1ccc(NC(=S)NCc2ccc3[nH]c4c(c3c2)CCCC4)cc1 to Cc1cccc(NC(=S)N/N=C2/CCCCc3ccccc32)c1, the IC50 falls from 22.1 µM to 9.98 µM (2.2-fold). The second is the more potent here.

Compared with Cc1ccc(OCCOc2cccc(Br)c2)c([N+](=O)[O-])n1, CCC(Oc1ccccc1)C(=O)Nc1ncc([N+](=O)[O-])s1 (centres undefined) is 3.8-fold lower in IC50: 69.2 µM for the first, 18.3 µM for the second. The second is the more potent here.

Compared with Cc1[nH]c(-c2ccc(F)cc2)cc1C(=O)N1CCN(c2ccccc2F)CC1, CC(=O)N1CCN(c2cc(N3CCc4ccccc4C3)c(F)cc2[N+](=O)[O-])CC1 is 3.6-fold lower in IC50: 35.5 µM for the first, 9.9 µM for the second.

First: Cc1c(C(=O)N2CCc3ccccc3C2)sc2nc(-c3ccccc3)cn12
Second: Cn1c(N2CCOCC2)nc(-c2ccccc2)c1-c1ccccc1
The IC50 of the first is 1.6-fold higher: 37.2 µM for the first, 22.9 µM for the second. The second is the more potent here.

First: Nc1nc(Nc2cccc(C(F)(F)F)c2)nc(C(F)(F)F)n1
Second: O=C(Nc1cccc(C(F)(F)F)c1)N1CCC(c2nc(-c3ccc(F)cc3)no2)CC1
The IC50 of the first is 3.2-fold lower: 23.4 µM for the first, 74.7 µM for the second. The first is the more potent here.

First: N#C/C(=N/Nc1ccc(OC(F)(F)F)cc1)C(N)=S
Second: N/C(=N\OC(=O)CCC1CCCC1)c1ccc([N+](=O)[O-])cc1
The IC50 of the first is 3.2-fold lower: 5.24 µM for the first, 16.9 µM for the second. The first is the more potent here.

First: CSc1nc(N)nc(-c2cccs2)c1C#N
Second: CCCc1ccc(-c2c(C)sc(N)c2C#N)cc1
The IC50 of the first is 1.7-fold higher: 32.5 µM for the first, 19.2 µM for the second. The second is the more potent here.

First: Fc1ccc(-c2csc3ncnc(Nc4ccc(N5CCOCC5)cc4)c23)cc1
Second: Clc1ccc(CNc2nc(CN3CCOCC3)nc3scc(-c4ccccc4)c23)cc1
The IC50 of the first is 3.1-fold higher: 41.2 µM for the first, 13.3 µM for the second. The second is the more potent here.

First: O=C(Nc1nccs1)c1ccc(Br)c(S(=O)(=O)N2CCOCC2)c1
Second: CNC(=O)c1nnsc1S(=O)(=O)c1ccc(Cl)cc1
The IC50 of the first is 1.7-fold higher: 27.7 µM for the first, 16.4 µM for the second. The second is the more potent here.

First: Cc1ccc(NC(=S)/N=C(\N)Nc2nc(C)c3cc(C)ccc3n2)c(C)c1
Second: Cc1cc(C)n(CC(O)Cn2c3ccc(Br)cc3c3cc(Br)ccc32)c(=O)n1 (centres undefined)
The IC50 of the first is 1.5-fold lower: 12.7 µM for the first, 19.3 µM for the second.

O=S(=O)(NCCNc1ncc(C(F)(F)F)cc1Cl)C(F)(F)F and CSc1ccc(S(=O)(=O)NCc2ccccc2Cl)cc1 are within 1.5-fold of each other in IC50: 26.6 µM for the first, 22.4 µM for the second.

First: Cc1cccc2nc(COc3ccc(Cl)c4cccnc34)cn12
Second: Cc1nn2c3ccccc3nc2c2ccccc12
The IC50 of the first is 1.7-fold lower: 44.7 µM for the first, 77.1 µM for the second.

First: O=C1c2cccc3cccc(c23)C(=O)N1CCN1CCN(CC(O)COc2ccc3ccccc3c2)CC1 (centres undefined)
Second: O=C(Nc1ccccc1Br)C1CC(=O)N(c2ccc3c4c(cccc24)CC3)C1 (centres undefined)
The IC50 of the first is 4-fold lower: 19.3 µM for the first, 77.7 µM for the second.

CCN1C(=O)/C(=C/c2c(C)nn(C)c2C)SC1=S and CC(C)(C)C(=O)NCCN1C(=O)S/C(=C\c2ccc([N+](=O)[O-])cc2)C1=O are within 1.5-fold of each other in IC50: 24.4 µM for the first, 32.3 µM for the second.

Going from C=CCNC(=S)NNc1nc2c(c(=O)[nH]1)C1(CCCC1)Cc1ccccc1-2 to C=CCc1cccc(CNc2nc3ccccc3n2C(C)C)c1O, the IC50 rises from 27.7 µM to 61.1 µM (2.2-fold). The first is the more potent here.

Going from CCCc1[nH]c2ccc(C#N)cc2c1CCC to CCC(CO)Nc1nc2ccc(Cl)cc2c2ccccc12 (centres undefined), the IC50 falls from 41.3 µM to 17 µM (2.4-fold). The second is the more potent here.

COc1ccc(Br)c(-c2nnc(CS(=O)(=O)c3ccccc3)o2)c1 and O=S(=O)(Nc1ccc(N=Nc2ccccc2)cc1)c1ccccc1 are within 1.5-fold of each other in IC50: 28.4 µM for the first, 35.5 µM for the second.

CC(C)(C)C(=O)Nc1nnc(SCc2ccc(F)cc2)s1 and O=C(Cc1ccc(Cl)c(Cl)c1)Nc1ccc(SC(F)F)cc1 are within 1.5-fold of each other in IC50: 42.2 µM for the first, 46.7 µM for the second.

O=C(CSCc1ccccc1Cl)NNC(=S)Nc1ccccc1 and O=[N+]([O-])c1cccc(NC(=S)NCCc2ccccc2)c1 are within 1.5-fold of each other in IC50: 33 µM for the first, 32.8 µM for the second.

Going from CCOc1ccc(-c2n[nH]c(C)c2Oc2ccc(OC)cc2)c(O)c1 to Cc1ccc(-c2cc(-c3cccc(F)c3)n[nH]2)c(O)c1, the IC50 rises from 16.4 µM to 40.4 µM (2.5-fold).

COc1ccc(-c2noc(C3CCCN(C(=O)CCc4ccccc4)C3)n2)cc1 (centres undefined) and COc1ccc(Br)cc1[C@H]1[C@@H]2C=CCC[C@@]2(C)C(=O)N1Cc1ccccc1 are within 1.5-fold of each other in IC50: 17.9 µM for the first, 12.1 µM for the second.

First: Fc1cc(F)cc(Nc2nc(Cl)nc(NC3CCCC3)n2)c1
Second: CNC(=O)c1ccsc1NC(=O)c1ccc(Cl)s1
The IC50 of the first is 1.7-fold lower: 37.7 µM for the first, 64.7 µM for the second.

Compared with CN(C)c1ccc(-[n+]2c(-c3ccccc3)cc(-c3ccccc3)cc2-c2ccccc2)cc1, CN(C)CCCN1c2ccccc2CCc2ccc(Cl)cc21 is 1.6-fold higher in IC50: 23.7 µM for the first, 37.8 µM for the second. The first is the more potent here.

Compared with COc1ccc(Br)cc1[C@H]1[C@H]2C=CC[C@@H](C)[C@@H]2C(=O)N1Cc1ccccc1, CN1/C(=C\C(=O)Nc2ccc(Br)cc2)C(C)(C)c2ccccc21 is 4.9-fold higher in IC50: 7.88 µM for the first, 38.7 µM for the second.

Going from O=C(O)/C=C/C(=O)c1ccc2c(c1)CCc1ccccc1-2 to CC1=CC(=O)C=C(C)C1=NOC(=O)/C=C\c1ccccc1, the IC50 rises from 10.9 µM to 42.4 µM (3.9-fold). The first is the more potent here.

Molecule COc1cc(OC)c(C(=O)O/N=C(\N)c2cccc(C)c2)cc1OC has an IC50 of 17.7 µM.

In the case of Cc1cc(Cl)ccc1OCC(=O)Nc1nc(-c2cccs2)cs1, the IC50 is reported as > 100 µM (inactive).
For Cc1c(C)n(C)c2ccc(C(=O)Nc3cccc4ccccc34)cc12, the IC50 was > 100 µM (inactive).
In the case of Cc1cccc(C(=O)O/N=C2\CCCc3ccccc32)c1, the IC50 is reported as > 100 µM (inactive).
